Experimental findings from patent US20080057107A1, “COMPOSITIONS FOR VAGINAL TREATMENT” (Kimberly-Clark Worldwide, Inc., priority 2004, published 2008) are described below.

For experiment [1], the system named is Normal human vaginal epithelial cells. As to the kind of experiment: Cell proliferation, CellTiter 96 Aqueous One Solution. Format: cell-based. The settings on record: 10^-5 M, three days after treatment, absorbance at 490 nm, vs control medium, p<0.05. The protocol: Normal human vaginal epithelial cells from Clonetics (NHVE 5164) were subcultured in basal PrEBM (Clonetics CC 3165) within 96 well plates at 37° C., 5% CO2. Cells were then exposed to medium containing mannose-6-phosphate (Sigma, M3655) at a concentration of 10^−5 M. Control groups received culture medium without mannose-6-phosphate. Cell proliferation was examined three days later and glycogen positive cells were detected five days after mannose-6-phosphate treatment. Cell proliferation was examined by using CellTiter 96 Aqueous One Solution from Promega (#TB245). Twenty μl of the reagent was added to each well. The plates were returned to cell culture incubator for 3 hours. The absorbance in each well was measured at 490 nm with a microtiter reader.

For experiment [2] the test system is unchanged. The experiment in a line: Periodic acid Schiff (PAS) assay for glycogen-positive cells. The format is cell-based. The settings on record: 10^-5 M, five days after treatment, manually counted, vs control medium. The protocol:
Normal human vaginal epithelial cells from Clonetics (NHVE 5164) were subcultured in basal PrEBM (Clonetics CC 3165) within 96 well plates at 37° C., 5% CO2. Cells were then exposed to medium containing mannose-6-phosphate (Sigma, M3655) at a concentration of 10^−5 M. Control groups received culture medium without mannose-6-phosphate. Cell proliferation was examined three days later and glycogen positive cells were detected five days after mannose-6-phosphate treatment.
A periodic acid Schiff (PAS) assay was used to detect glycogen levels. Before the assay, cells were washed with PBS and fixed with a 10 vol % Formalin/ethanol solution for 1 hour at room temperature, followed by continuous rinsing with deionized (DI) water for 1 minute. A Harleco® PAS Assay Kit (from EM Science 64945/43) was used for glycogen detection. The basic principle is that the hydroxy groups on the glycogen units were first oxidized into aldehyde groups by periodic acid, and the aldehyde groups reacted with Schiff's agent to produce a red colorant. The specific assay operations were all done at room temperature as follows: • 1. Periodic acid reagent was added to the well/chamber and allowed to stand for 10 minutes. • 2. […] The numbers of glycogen-stained positive cells were manually counted under microscope. The data was analyzed by student's t test, and p<0.05 was considered significant. […]

Regarding `O=C[C@@H](O)[C@@H](O)[C@H](O)[C@H](O)COP(=O)(O)O` [mannose-6-phosphate], the vaginal cell proliferation entry in experiment [1] was “significantly (p<0.05) increased”. Also, in experiment [2], the “number of glycogen-positive cells” value is “significantly higher”.
